Our source for the AC50 and IC50 values is patent publication US20230339900A1, “CASEIN KINASE 1 DELTA MODULATORS” (Janssen Pharmaceutica NV, priority 2020, published 2023).

pIC50: −log10 of the molar value.

In experiment [1] the target is human recombinant GST cleaved CSNK1D (Homo sapiens (Human), UniProt P48730). Nature of the experiment: Purified enzyme assay (ADP-Glo Kinase Assay). The class given is biochemical. The settings on record: 2 nM CSNK1D, peptide substrate 150 μM, ATP 20 μM, 45 minutes room temperature. The procedure: In this assay, CSNK1D phosphorylates a substrate peptide PLSRTL-pS-VASLPGL in the presence of ATP. […] This assay monitors CSNK1D kinase activity by measuring the amount of ADP produced in the assay. A substrate mix is prepared by diluting peptide substrate (final concentration 150 μM) with ATP (final concentration 20 μM) in assay buffer (50 mM Tris/HCl pH 7.4+10 mM MgCl2+1 mM DTT+0.1% BSA). The substrate mix is added to each well of a low volume, 384-well, white opaque plate. Test compounds were diluted in HBSS and added in a dose-response to the plate. To start the reaction, 2 nM of constitutively active human recombinant GST cleaved CSNK1D (University of Dundee, clone DU 19064, stored at 0.28 mg/mL in 50 mM Tris/HCl pH 7.5, 150 mM NaCl, 270 mM Sucrose, 0.1 mM EGTA, 0.1% 2-mercaptoethanol, 0.02% Brij-35.1 mM benzamidine, 0.2 mM PMSF) was added to each well and the plate centrifuged for 5 minutes at 1500 rpm. The total volume of each reaction is 5 ul (2 μL of substrate mix, 1 μL of diluted compounds, and 2 μL of human recombinant CSNK1D). The plates are incubated for 45 minutes at room temperature.
ADP was quantified using the ADP-Glo™ Kinase Assay. ADP-Glo Reagent (5 μL) was added to each well. After a 1 hour incubation at room temperature, Kinase Detection Reagent (10 μL) was added to each well and incubated for 30 minutes. Luminescence was measured on the Perkin Elmer Wallac EnVision 2104 Multi-label Reader. The raw data from the Envision is used to calculate percent activity.
Background: ADP-Glo first removes unused ATP, then detects ADP through luciferase.

The target of experiment [2] is human CSNK1D tagged with nanoluciferase (Homo sapiens (Human), UniProt P48730). Description: Whole Cell nBRET CSNK1D Binding Assay. Conditions: living CHO cells stably expressing human CSNK1D-nanoluciferase; NanoBret tracer 130 nM; 2 hours 37° C.; read-out: CSNK1D BRET IC50. The protocol: This cellular binding assay uses a bioluminescence resonance energy transfer to measure human CSNK1D binding activity in living Chinese Hamster Ovary (CHO) cells that are stably expressing human CSNK1D tagged with nanoluciferase. The cells were grown to confluency in growth media (DMEM:F12, 50 u/mLPen/Strep, […] glutamine, and 0.6 mg/mL G418) in 10 cm^2 dishes. Cells were seeded onto white, opaque 384-well plates (Corning, cat #3704) at a density of 8,000 cells/well in serum-free OptiMEM and left to incubated overnight at 37° C., […]. The next day, test compounds were added in a dose response to the plate followed by a NanoBret tracer (130 nM). The plate is mixed on an orbital shaker for 30 seconds, then placed in a 37° C. incubator for 2 hours. NanoBret Nano-Glo Substrate solution (20 μL) is added to all wells and incubated for 3 minutes at room temperature. Donor (450 nm) and acceptor (630 nm) emissions are then measured within 10 minutes using a ClarioStar plate reader. The data is used to calculate millibret units, defined as (E630/E450)*1000. Bret emissions are then graphed against the log of compound concentrations and these graphs are used to determine the IC50 of each compound.
For orientation: Bioluminescence resonance energy transfer reports proximity on the nanometre scale.

Sequence of human recombinant GST cleaved CSNK1D (P48730 whole entry): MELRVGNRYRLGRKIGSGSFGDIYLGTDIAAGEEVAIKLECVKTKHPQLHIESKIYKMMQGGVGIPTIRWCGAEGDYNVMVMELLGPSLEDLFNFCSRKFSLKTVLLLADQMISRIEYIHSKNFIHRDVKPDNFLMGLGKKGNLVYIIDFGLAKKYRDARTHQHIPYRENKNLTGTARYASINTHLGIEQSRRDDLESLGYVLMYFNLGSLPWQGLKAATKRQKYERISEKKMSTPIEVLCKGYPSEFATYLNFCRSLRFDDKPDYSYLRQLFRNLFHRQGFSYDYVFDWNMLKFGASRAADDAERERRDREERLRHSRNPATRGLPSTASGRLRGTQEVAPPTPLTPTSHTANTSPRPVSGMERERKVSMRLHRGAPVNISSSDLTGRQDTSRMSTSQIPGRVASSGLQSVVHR
Sequence of human CSNK1D tagged with nanoluciferase (P48730 whole entry): as above

As to `CCn1cc(-c2ccnc3[nH]ncc23)c(-c2ccc(F)cn2)n1` [Example 56, 4-(1-Ethyl-3-(5-fluoropyridin-2-yl)-1H-pyrazol-4-yl)-1H-pyrazolo[3,4-b]pyridine], the AC50 in experiment [1] was 5 nM. The pIC50 in experiment [2] was 6.69.
In the case of `Cn1cc(-c2ccnc3ccccc23)c(-c2ccc(F)cn2)n1` [Example 104, 4-[3-(5-Fluoro-2-pyridyl)-1-methyl-pyrazol-4-yl]quinoline], the half-maximal activity concentration (AC50) in experiment [1] worked out at 170 nM. The pIC50 in experiment [2] was 5.88.
For `Cn1cc(-c2ccnc3ccc(F)nc23)c(-c2ccc(F)cn2)n1` [Example 127, 2-Fluoro-8-[3-(5-fluoro-2-pyridyl)-1-methyl-pyrazol-4-yl]-1,5-naphthyridine], the concentration at half-maximal activity (AC50) in experiment [1] turned out to be 46 nM. In addition, the negative-log IC50 (pIC50) in experiment [2] is 6.02.
In the same order, the values of `COc1cnc2c(-c3cn(C)nc3-c3ccc(F)cn3)ccnc2c1` [Example 155, 8-[3-(5-Fluoro-2-pyridyl)-1-methyl-pyrazol-4-yl]-3-methoxy-1,5-naphthyridine] are 22 nM and 6.50.
In the same order, the values of `Cc1cc(-c2cn(CC(F)(F)F)nc2-c2ccc(F)cn2)c2cn[nH]c2n1` [Example 70, 4-(3-(5-Fluoropyridin-2-yl)-1-(2,2,2-trifluoroethyl)-1H-pyrazol-4-yl)-6-methyl-1H-pyrazolo[3,4-b]pyridine] are 12 nM and 6.63.
With `Cc1nc(-c2cn(C)nc2-c2ccc(F)cn2)c2cn[nH]c2n1` [Example 124, 4-[3-(5-Fluoro-2-pyridyl)-1-methyl-pyrazol-4-yl]-6-methyl-1H-pyrazolo[3,4-d]pyrimidine], in experiment [1], the concentration at half-maximal activity (AC50) was determined as 52 nM. Moreover, the negative-log IC50 (pIC50) in experiment [2] is 5.71.
For the compound `Cn1cc(-c2ccnc3[nH]ccc23)c(-c2ccnnc2)n1` [Example 49, 4-(1-Methyl-3-pyridazin-4-yl-pyrazol-4-yl)-1H-pyrrolo[2,3-b]pyridine], the AC50 in experiment [1] is 451 nM. In addition, the negative-log IC50 (pIC50) in experiment [2] is less than 5.00.
Turning to `Cc1cc(-c2cn(CC(F)F)nc2-c2ccc(F)cn2)c2cn[nH]c2n1` [Example 69, 4-(1-(2,2-Difluoroethyl)-3-(5-fluoropyridin-2-yl)-1H-pyrazol-4-yl)-6-methyl-1H-pyrazolo[3,4-b]pyridine], the AC50 in experiment [1] was 6 nM. The negative-log IC50 (pIC50) in experiment [2] is 6.51.
`Cc1cc(-c2cn(C3CC3)nc2-c2ccc(F)cn2)c2cn[nH]c2n1` [Example 134, 4-[1-Cyclopropyl-3-(5-fluoro-2-pyridyl)pyrazol-4-yl]-6-methyl-1H-pyrazolo[3,4-b]pyridine]: the concentration at half-maximal activity (AC50) in experiment [1] came to 30 nM. Moreover, the pIC50 in experiment [2] was 6.48.
Take `COc1ccc2nccc(-c3cn(C)nc3-c3ccc(F)cn3)c2n1` [Example 103, 8-[3-(5-Fluoro-2-pyridyl)-1-methyl-pyrazol-4-yl]-2-methoxy-1,5-naphthyridine]: the AC50 in experiment [1] is 10 nM. Also, the pIC50 in experiment [2] is 6.83.
In the same order, the values of `Cn1cc(-c2ccnc3cc(Br)cnc23)c(-c2ccc(F)cn2)n1` [Example 153, 3-Bromo-8-[3-(5-fluoro-2-pyridyl)-1-methyl-pyrazol-4-yl]-1,5-naphthyridine] are 39 nM and 6.24.
`Cn1cc(-c2ccnc3[nH]ccc23)c(-c2ccsn2)n1` [Example 15, 3-(1-Methyl-4-(1H-pyrrolo[2,3-b]pyridin-4-yl)-1H-pyrazol-3-yl)isothiazole]: the concentration at half-maximal activity (AC50) in experiment [1] came out at 7 nM. Besides, the negative logarithm of the IC50 (pIC50) in experiment [2] was 6.74.
In the case of `Cn1nc(-c2ccc(F)cn2)c(-c2ccnc3[nH]ccc23)c1C1CCC1` [Example 52, 4-(5-Cyclobutyl-3-(5-fluoropyridin-2-yl)-1-methyl-1H-pyrazol-4-yl)-1H-pyrrolo[2,3-b]pyridine], the half-maximal activity concentration (AC50) in experiment [1] was 13 nM. Further, in experiment [2], the negative-log IC50 (pIC50) was 6.64.
The matching figures for `Cn1cc(-c2nc(C3CC3)nc3[nH]ccc23)c(-c2ccc(F)cn2)n1` [Example 125, 2-Cyclopropyl-4-[3-(5-fluoro-2-pyridyl)-1-methyl-pyrazol-4-yl]-7H-pyrrolo[2,3-d]pyrimidine]: 66 nM and 5.72.
`Cn1cnc(-c2nn(C)cc2-c2ccnc3[nH]ccc23)c1` [Example 9, 4-(1-Methyl-3-(1-methyl-1H-imidazol-4-yl)-1H-pyrazol-4-yl)-1H-pyrrolo[2,3-b]pyridine]: the half-maximal activity concentration (AC50) in experiment [1] was 16 nM. The pIC50 in experiment [2] was 6.25.
In the case of `Fc1ccc(-c2nn(C(F)F)cc2-c2ccnc3[nH]ccc23)nc1` [Example 65, 4-[1-(Difluoromethyl)-3-(5-fluoro-2-pyridyl)pyrazol-4-yl]-1H-pyrrolo[2,3-b]pyridine], in experiment [1], the half-maximal activity concentration (AC50) turned out to be 21 nM. Moreover, the negative-log IC50 (pIC50) in experiment [2] is 6.77.
The matching figures for `CCn1cc(-c2cc(C)nc3[nH]ncc23)c(-c2ccc(F)cn2)n1` [Example 57, 4-(1-Ethyl-3-(5-fluoropyridin-2-yl)-1H-pyrazol-4-yl)-6-methyl-1H-pyrazolo[3,4-b]pyridine]: 14 nM and 6.66.
In the same order, the values of `Cn1cc(-c2ccnc3[nH]ccc23)c(-c2cccnn2)n1` [Example 48, 4-(1-Methyl-3-pyridazin-3-yl-pyrazol-4-yl)-1H-pyrrolo[2,3-b]pyridine] are 39 nM and 5.46.
For `Cn1cc(-c2ccnc3[nH]ccc23)c(-c2ccc(Cl)cn2)n1` [Example 24, 4-[3-(5-Chloro-2-pyridyl)-1-methyl-pyrazol-4-yl]-1H-pyrrolo[2,3-b]pyridine], the AC50 in experiment [1] amounted to 34 nM. Besides, the pIC50 in experiment [2] is 6.60.
`Cn1cc(-c2ccnc3[nH]ncc23)c(-c2ccc(Cl)cn2)n1` [Example 25, 4-(3-(5-Chloropyridin-2-yl)-1-methyl-1H-pyrazol-4-yl)-1H-pyrazolo[3,4-b]pyridine]: the AC50 in experiment [1] was found to be 693 nM. Besides, the pIC50 in experiment [2] was 6.51.
The matching figures for `Cn1cc(-c2ccnc3[nH]cc(Br)c23)c(-c2ccc(F)cn2)n1` [Example 75, 3-Bromo-4-[3-(5-fluoro-2-pyridyl)-1-methyl-pyrazol-4-yl]-1H-pyrrolo[2,3-b]pyridine]: 1 nM and 7.62.
As to `Cn1cc(-c2ccnc3c2CNC3)c(-c2ccc(F)cn2)n1` [Example 117, 4-(3-(5-Fluoropyridin-2-yl)-1-methyl-1H-pyrazol-4-yl)-6,7-dihydro-5H-pyrrolo[3,4-b]pyridine], the AC50 in experiment [1] was found to be 101 nM. Further, the pIC50 in experiment [2] was less than 5.00.
Regarding `Cn1cc(-c2ccnc3cc[nH]c23)c(-c2ccc(F)cn2)n1` [Example 4, 7-(3-(5-Fluoropyridin-2-yl)-1-methyl-1H-pyrazol-4-yl)-1H-pyrrolo[3,2-b]pyridine], the concentration at half-maximal activity (AC50) in experiment [1] stood at 118 nM. Further, in experiment [2], the pIC50 is 5.63.
Take `COc1cc2nccc(-c3cn(C)nc3-c3ccc(F)cn3)c2cn1` [Example 154, 4-[3-(5-Fluoro-2-pyridyl)-1-methyl-pyrazol-4-yl]-7-methoxy-1,6-naphthyridine]: in experiment [1], the concentration at half-maximal activity (AC50) amounted to 25 nM. In experiment [2], the negative logarithm of the IC50 (pIC50) is 6.28.
With `Cn1cc(-c2ccnc3[nH]ccc23)c(-c2ccncc2F)n1` [Example 18, 4-[3-(3-Fluoro-4-pyridyl)-1-methyl-pyrazol-4-yl]-1H-pyrrolo[2,3-b]pyridine], the AC50 in experiment [1] amounted to 26 nM. Further, in experiment [2], the pIC50 was 5.75.
In the case of `CC(C)n1cc(-c2ccnc3[nH]ccc23)c(-c2ccc(F)cn2)n1` [Example 58, 4-[3-(5-Fluoro-2-pyridyl)-1-isopropyl-pyrazol-4-yl]-1H-pyrrolo[2,3-b]pyridine], the concentration at half-maximal activity (AC50) in experiment [1] stood at 17 nM. In experiment [2], the pIC50 is 7.01.
In the case of `Cn1cc(-c2ccnc3[nH]ncc23)c(-c2ccc(C(F)F)cn2)n1` [Example 33, 4-(3-(5-(Difluoromethyl)pyridin-2-yl)-1-methyl-1H-pyrazol-4-yl)-1H-pyrazolo[3,4-b]pyridine], the AC50 in experiment [1] was found to be 317 nM. Moreover, the pIC50 in experiment [2] was 4.75.
In the case of `Cn1cc(-c2ccnc3[nH]c(C4COC4)cc23)c(-c2ccc(F)cn2)n1` [Example 92, 4-(3-(5-Fluoropyridin-2-yl)-1-methyl-1H-pyrazol-4-yl)-2-(oxetan-3-yl)-1H-pyrrolo[2,3-b]pyridine], in experiment [2], the pIC50 is 6.74.

For orientation: AC50 means the concentration at which the activity in the assay is half-maximal. As a reminder, the pIC50 is the negative decadic logarithm of the IC50, by convention in mol/L.
